Test results taken from patent publication US20080269121A1, “Methods and Compositions Involving A1c Subunit of L-Type Calcium Channels in Smooth Muscle Cells” (The Board of Regents of the University of Texas System, priority 2005, published 2008).
“Also recorded” adds a separate entry of the source.

Key:
[1] = tested on: α1C subunit of L-type Ca^2+ channels; assay: Q-PCR of α1C mRNA expression in HCCSMC; assay type: cell-based, human
Description: (§1) Primary cultures of HCCSMC: Human tissue was obtained from the descending and sigmoid colons with approval of the University of Texas Medical Branch Institutional Review Board from disease free margins of resected segments from patients undergoing surgery for colon cancer. The circular muscle layer was separated from the taenia coli and lamina propria with a tissue slicer. The circular muscle layer was collected in ice-cold HEPES buffer (in mM: 120 NaCl, 2.6 KH2S04, 4 KCl, 2 CaCl2, 0.6 MgCl2, 25 HEPES, 14 glucose and 2.1% essential amino acid mixture, pH 7.4). Two successive digestions with papain and collagenase, as described previously by Shi and Sarna, were used to disperse smooth muscle cells. The cells were cultured in RPMI 1640 (Gibco/Invitrogen, Carlsbad, Calif.) supplemented with 10% fetal bovine serum in the presence of 100 units/mL of penicillin G, 100 μg/mL of streptomycin sulfate and 0.25 μg/mL of amphoteracin B. The culture medium was changed every three days. Cells in passages 3 to 5 were used in all experiments. All cells were cultured in serum-free medium for at least 15 h prior to experiments to eliminate the possible effects of growth factors. […] The cultures of colonic smooth muscle cells retain their contractile phenotype. Each experiment used cells or muscle strips from at least three different subjects.
Total RNA was extracted from cells using the Qiagen RNeasy kit (Qiagen, Valencia, Calif.) by following the manufacturer's protocol. The cDNAs were made using the Superscript First-Strand Synthesis System (Invitrogen, Carlsbad, Calif.).
Quantitive real-time-polymerase chain reaction (Q-PCR). Q-PCR assay is employed to determine gene expression using TaqMan technology on Applied Biosystems 7000 sequence detection system (UTMB Real-time PCR Core Facility). Applied Biosystems Assays-By-Design containing a 20× assay mix of primers and TaqMan MGB probes (FAMTM dye-labeled) are used for a target gene and the endogenous control, human 18s RNA. These assays were designed using primers that span exon-exon junctions so as not to detect genomic DNA. All primer and probe sequences were searched against the Celera data base to confirm specificity. The primer and probe sequences used were as follows: human Cav1.2 channel oα1C intermediate form (Cav1.2b) probe spanning exon 1b and exon 2, […] (SEQ ID NO:4): forward primer, […] (SEQ ID NO:5): reverse primer, […] (SEQ ID NO:6). Human Cav1.2 channel α1C long form (Cav1.2a) probe spanning exon 1a and exon 2: […] (SEQ ID NO:7): forward primer, […] (SEQ ID NO:8): reverse primer. […] (SEQ ID NO:6).

[2] = tested on: α1C subunit of L-type Ca^2+ channels; assay: α1C protein expression (Western immunoblotting); assay type: cell-based, human
Description: as §1
(§2) Western immunoblotting. Each lane is loaded with 10 μg protein and size-separated on a 10% SDS polyacrylamide gel. After blotting, the nitrocellulose membranes are blocked with 10% non-fat dried milk at 4° C. overnight. The blots are incubated with appropriate dilution of the antibody at 4° C. overnight and appropriate dilution of designated secondary antibody at room temperature for 1 h. β-actin is used as internal control.

cAMP = cAMP levels in HCCSMC; assay type: cell-based, human
Description: as §1

HCCSMC = assay: Cytosolic free Ca^2+ measurement (fura-2 AM) in HCCSMC; assay type: cell-based, human; conditions: treatment for 24 h, by
Procedure: Cytosolic free Ca^2+ measurement: Cytosolic calcium level ([Ca^2+]i) was measured in a wide-field imaging system at the UTMB core Optical Imaging Laboratory using the Ca^2+-sensitive fluorescent dye fura 2-AM (Molecular Probes, Eugene, Oreg.). HCCSMC cultured on cover slips were incubated with 1 μM fura 2-AM for 45 min at 37° C. in a modified HEPES buffer (pH 7.4) containing (in mM): 10 HEPES, 125 NaCl, 5 KCl, 1 CaCl2, 0.5 MgSO4, 5 glucose. Cover slips with cells were washed with fresh medium and mounted on the stage of a Nikon TE200 inverted microscope (Nikon Instruments, Lewisville, Tex.) equipped with a CoolSNAP HQ cooled-CCD monochrome digital camera (Roper Scientific, Tucson Ariz.). Cells were examined under a super-fluor 20×0.75 NA objective during exposure to alternating 340 and 380 nm excitation light (DG4 illuminator system, Sutter Instrument, Novato, Calif.), and the intensity of light emission at 510 nm was measured. The light intensities and their ratio, F340/F380, which reflects changes in Ca^2+ concentration, were followed simultaneously in several single cells in the field. The acquisition process was controlled by the Metafluor image acquisition software (Universal Imaging Corp. Downingtown, Pa.).

CREB = CREB phosphorylation in HCCSMC; assay type: cell-based, human
Procedure: as §2

CRE1 and CRE2 = assay: Oligonucleotide agarose conjugate pull-down of CREB; assay type: cell-based, human; conditions: FIG. 10
ERK ½ = assay: MAP kinase phosphorylation: ERK ½; assay type: cell-based
p38 = assay: MAP kinase phosphorylation: p38; assay type: cell-based
[3] = tested on: TNBS-induced inflammation; assay type: in vivo, rat; conditions: intact rat model, treatment through osmotic pumps, expected
Procedure: Muscle bath experiments. Pure circular muscle strips (2 mm×10 mm) are prepared from resected human colon segments. The strips are mounted in 5 ml baths filled with carbonated Krebs solution (in mM: 118 NaCl, 4.7 KCl, 2.5 CaCl2, 1 NaH2PO4, 1-2 MgCl2, 11 D-glucose, and 25 NaHCO3) at 37° C. (Siebenlist et al., 1994; Barnes and Karin, 1997). The muscle strips are equilibrated for 1 h at 1 g tension and then stretched until maximal response is obtained to 10^−4 m ACh. The bathing solution is replaced every 15 min. Contractions are measured by force transducers and analyzed by DATAQ (Akron, Ohio) software.
Vertebrate Animals. Sprague-Dawley rats were used. For tissue harvesting, the rats were anesthetized with 5% isoflurame in 100% oxygen for 5 to 7 minutes followed by i.p. injection of 50 mg/kg ketamine.
Osmotic pumps were implanted under anesthesia as discussed above. Lateral surface of left back were shaven and cleaned with betadine. A 2 cm incision was made in the skin and subcutaneous facia and muscle separated. The micro-osmotic pump were implanted intramuscularly and the incision was closed.
Colonic inflammation was induced by intraluminal injection of 30 mg/kg or 130-mg/kg trinitrobenzene sulfonic acid (TNBS) under anesthesia, as described above.

[4] = tested on: TNBS (trinitrobenzene sulfonic, acid)-induced colitis; conditions: systemic bolus injections, mouse; cited from earlier work

vasoactive intestinal polypeptide [VIP]
induction of α1C mRNA expression ([1]; HCCSMC): induced expression; also recorded: enhanced the mRNA of α1C
duration of α1C mRNA transcription and translation after treatment ([1]; HCCSMC, FIG. 3): at least 24 h
increase of α1C mRNA ([1]; at 6 h, adult human colonic circular smooth muscle cells): about 50%
increase of α1C protein ([2]; adult human colonic circular smooth muscle cells): about 100%
effect on TNFα suppression of α1C protein ([2]; muscle strip tissue, FIG. 14 top): minimized
duration of elevated cAMP levels (cAMP): at least 24 h
intercellular cAMP levels (cAMP; 24 h treatment): elevated throughout the 24 h period
Ca^2+ influx (HCCSMC): enhanced Ca^2+ influx
duration of CREB phosphorylation (CREB): lasted about one hour
phosphorylation of CREB (CREB; HCCSMC): phosphorylated upon exposure to VIP; also recorded: transient phosphorylation
CREB binding to CRE1 and CRE2 (CRE1 and CRE2): more CREB binds at both CRE1 and CRE2
phosphorylation of ERK ½ (ERK ½): time-dependently dephosphorylated
phosphorylation of p38 (p38): time-dependently dephosphorylated
effect on suppression of contractility due to TNBS-induced inflammation [3]: partially inhibit the suppression of contractility
MPO (myeloperoxidase) activity [4]: did not completely suppress
TNBS-induced diarrhea [4]: abrogated TNBS-induced diarrhea
macroscopic and microscopic inflammation [4]: reduced macroscopic and microscopic inflammation
